Patent US5200338A, “Bacterial extracellular lignin peroxidase” (Idaho Research Foundation, Incorporation, priority 1988, dated 1993)

Experiments:
[1] = test system: partially purified peroxidase; assay: Oxidation of lignin substructure model compounds by partially purified peroxidase; format: biochemical, Streptomyces viridosporus T7A; conditions: 0.02% (wt/vol) model compound, hydrogen peroxide, pH 5.5, 37° C., 18 hours
Protocol: The model compounds were added to reaction mixtures at a final concentration of 0.02% (wt/vol). Reactions were carried out in a total volume of 3.0 ml, containing 0.1 mM hydrogen peroxide or a peroxide generating system consisting of 0.02 units/ml of glucose oxidase (Sigma) and 3 mM glucose 0.1M sodium tartrate buffer (pH 5.5) and 300 μl of enzyme preparation. Control reactions were performed with boiled enzyme preparation. Some reaction mixtures were flushed with oxygen and all were incubated at 37° C. for 18 hours on a shaker in slanting tubes. The reaction mixtures were then acidified to pH 2-3 with 12M HCl and extracted once with ether and once with ethyl acetate. […]
HPLC was performed on a Hewlett-Packard 1090A high pressure liquid chromatograph employing a HP-1040A diode array detector. During each run, chromatograms for 258, 280, and 310 nm were recorded and the ultraviolet (UV) absorbance spectrum (250-350 nm) of each peak was recorded at its front side, apex, and trailing side. […]
Only veratraldehyde, anisaldehyde and vanillin were detected by HPLC, GC, and GC/MS. Guaiacol, formed in trace amounds, was detected by HPLC, GC, and GC/MS. Small amounts of products (IV) and (V) were detected only by MS fragmentation. […]

[2] = test system: Peroxidase P3; conditions: inhibitor at final concentration lmM
Protocol: Enzyme activity was also assayed using L-3,4-dihydroxyphenylalanine (L-DOPA; Sigma) as substrate.

[3] = test system: Peroxidase P3
Protocol: Peroxidase activity was routinely assayed with 2,4-dichlorophenol (2,4-DCP) (Sigma) as substrate. A final volume of 1.0 ml of reaction mixture contained 100 mM sodium succinate buffer (pH 5.5), 82 mM 4-aminoantipyrine(Sigma), 1.0 mM 2,4-dichlorophenol, 4.0 mM hydrogen peroxide and 100 μl of enzyme preparation. The reaction was initiated by the addition of hydrogen peroxide and the increase in A510 was monitored for one minute at 37° C. One unit of enzyme was expressed as the amount of enzyme required for an increase of 1.0 absorbance unit per min.

Structure (SMILES)	Oxidation of the model compound by the peroxidase (bond cleaved) [1]	% inhibition of peroxidase P3 activity, substrate L-DOPA [2] [%]	Specific activity, substrate L-DOPA, with inhibitor ([2]; partially purified P3) [Units/mg protein]	Inhibition of the enzyme (2,4-DCP and L-DOPA oxidizing activities), in words ([3]; 1 mM concentration)	% inhibition of peroxidase P3 activity, substrate 2,4,-DCP ([3]; inhibitor at final concentration lmM) [%]	Specific activity, substrate 2,4,-DCP, with inhibitor ([3]; inhibitor at final concentration lmM, partially purified P3) [Units/mg protein]
COc1ccc(C(O)C(CO)Oc2ccccc2OC)cc1OC (stereo not shown) [I, 1-(3,4-Dimethoxyphenyl)-2-(2-methoxyphenoxy)propane-1,3-diol]	cleaved at the Cα -Cβ bond					
COc1ccc(C(=O)Cc2ccccc2)cc1 [III, 1-(4-methoxyphenyl)-2-(phenyl)ethan-1-one]	cleaved between the Cαand Cβcarbons					
[N-]=[N+]=[N-] [sodium azide]		41	0.18	inhibited	83	0.18
